According to the supplement of paper PMC10307832:

Legend:
Assay in all cases: relative viability (nuclei count vs DMSO), 5 days (fraction); higher = more cells survive
Vismodegib + AZD7762 = compound: CS(=O)(=O)c1ccc(C(=O)Nc2ccc(Cl)c(-c3ccccn3)c2)c(Cl)c1 [Vismodegib] + NC(=O)Nc1cc(-c2cccc(F)c2)sc1C(=O)N[C@H]1CCCNC1 [AZD7762] (partner 0.2 µM)
Procedure, shortened: (§1)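 Each reported value is a median over duplicate plates. It expresses relative viability: treated-well nuclei count divided by vehicle-well nuclei count. Lung cancer cell lines in 1536-well plates were dosed by pin tool a day after seeding, alone with one drug or with a fixed anchor-drug dose plus five library-drug doses (not always all listed) in √10 steps, and nuclei were counted after 5 days.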

VE-821 + Luminespib = compound: CS(=O)(=O)c1ccc(-c2cnc(N)c(C(=O)Nc3ccccc3)n2)cc1 [VE-821] + CCNC(=O)c1noc(-c2cc(C(C)C)c(O)cc2O)c1-c1ccc(CN2CCOCC2)cc1 [Luminespib] (partner 0.01 µM)
Procedure, shortened: as §1

Vismodegib + Tozasertib = compound: CS(=O)(=O)c1ccc(C(=O)Nc2ccc(Cl)c(-c3ccccn3)c2)c(Cl)c1 [Vismodegib] + Cc1cc(Nc2cc(N3CCN(C)CC3)nc(Sc3ccc(NC(=O)C4CC4)cc3)n2)n[nH]1 [Tozasertib] (partner 0.1 µM)
Procedure, shortened: as §1

Vismodegib + Phenformin = compound: CS(=O)(=O)c1ccc(C(=O)Nc2ccc(Cl)c(-c3ccccn3)c2)c(Cl)c1 [Vismodegib] + N=C(N)NC(=N)NCCc1ccccc1 [Phenformin] (partner 250 µM)
Procedure, shortened: as §1

Row | Cell Line | relative viability (Vismodegib + AZD7762; first compound 0.08 µM) | relative viability (Vismodegib + AZD7762; first compound 0.253 µM) | relative viability (Vismodegib + AZD7762; first compound 0.8 µM) | relative viability (Vismodegib + AZD7762; first compound 2.53 µM) | relative viability (Vismodegib + AZD7762; first compound 8 µM) | relative viability (VE-821 + Luminespib; first compound 0.08 µM) | relative viability (VE-821 + Luminespib; first compound 0.253 µM) | relative viability (VE-821 + Luminespib; first compound 0.8 µM) | relative viability (VE-821 + Luminespib; first compound 2.53 µM) | relative viability (VE-821 + Luminespib; first compound 8 µM) | relative viability (Vismodegib + Tozasertib; first compound 0.08 µM) | relative viability (Vismodegib + Tozasertib; first compound 0.253 µM) | relative viability (Vismodegib + Tozasertib; first compound 0.8 µM) | relative viability (Vismodegib + Tozasertib; first compound 2.53 µM) | relative viability (Vismodegib + Tozasertib; first compound 8 µM) | relative viability (Vismodegib + Phenformin; first compound 0.08 µM) | relative viability (Vismodegib + Phenformin; first compound 0.253 µM) | relative viability (Vismodegib + Phenformin; first compound 0.8 µM) | relative viability (Vismodegib + Phenformin; first compound 2.53 µM) | relative viability (Vismodegib + Phenformin; first compound 8 µM)
1 | HCC-827 | 0.278 | 0.183 | 0.258 | 0.168 | 0.169 | 0.599 | 0.686 | 0.277 | 0.696 | 0.489 | 0.42 | 0.419 | 0.432 | 0.392 | 0.423 | 0.39 | 0.406 | 0.381 | 0.384 | 0.408
2 | HOP-62 | 0.591 | 0.41 | 0.798 | 0.691 | 0.423 | 0.966 | 0.822 | 0.981 | 0.694 | 0.596 | 0.307 | 0.327 | 0.345 | 0.343 | 0.332 | 0.645 | 0.637 | 0.665 | 0.698 | 0.569
3 | LC-2-ad | 0.823 | 0.822 | 0.84 | 0.864 | 0.751 | 1.18 | 1.09 | 1.19 | 1.24 | 1 | 0.504 | 0.545 | 0.427 | 0.434 | 0.462 | 0.626 | 0.583 | 0.561 | 0.618 | 0.494
4 | LCLC-97TM1 | 0.292 | 0.262 | 0.327 | 0.297 | 0.286 | 0.821 | 0.795 | 0.952 | 0.993 | 0.709 | 0.22 | 0.284 | 0.218 | 0.239 | 0.273 | 0.443 | 0.407 | 0.42 | 0.452 | 0.407
5 | LCLC-103H | 0.752 | 0.796 | 0.735 | 0.774 | 0.834 | 1.1 | 0.925 | 0.898 | 0.947 | 0.718 | 0.503 | 0.506 | 0.489 | 0.437 | 0.446 | 0.39 | 0.332 | 0.328 | 0.357 | 0.323
6 | LK-2 | 0.401 | 0.479 | 0.419 | 0.387 | 0.447 | 0.18 | 0.182 | 0.149 | 0.205 | 0.181 | 0.194 | 0.167 | 0.167 | 0.17 | 0.165 | 0.617 | 0.619 | 0.431 | 0.366 | 0.373
7 | LOU-NH91 | 0.802 | 0.752 | 0.727 | 0.771 | 0.789 | 0.431 | 0.366 | 0.319 | 0.345 | 0.279 | 0.622 | 0.688 | 0.644 | 0.656 | 0.675 | 0.66 | 0.68 | 0.67 | 0.75 | 0.681
8 | NCI-H520 |  |  |  |  |  | 0.218 | 0.24 | 0.191 | 0.276 | 0.227 | 0.392 | 0.452 | 0.481 | 0.385 | 0.433 | 0.535 | 0.576 | 0.63 | 0.574 | 0.688
9 | NCI-H661 |  |  |  |  |  | 0.88 | 0.944 | 0.958 | 0.914 | 0.803 | 0.352 | 0.339 | 0.353 | 0.359 | 0.365 | 0.31 | 0.264 | 0.3 | 0.259 | 0.291
